Source: patent US20110039947A1, “SURFACE-MODIFIED NANOPARTICLES” (3M Innovative Properties Company, priority 2008, published 2011)

Assay: Pharmaceutical performance: Aerolizer DPI with Next Generation Pharmaceutical Impactor (NGI)
Type: physicochemical
Conditions: nominally 2 mg powder, NGI at 60 lpm for 4 seconds, respirable limit 4.5 micrometers
Method: Samples of micronized lactose and micronised budesonide powder were tested in addition to testing samples of nanoparticle-modified lactose and nanoparticle-modified budesonide powders. The NGI was coupled with a USP throat (United States Pharmacopeia, USP 24 <601>Aerosols, Metered Dose Inhalers, and Dry Powder Inhalers) and operated at a volumetric flow rate of 60 liters per minute (lpm) for a collection time of four seconds. A suitable coupler was affixed to the USP throat to provide an air-tight seal between the DPI device and the throat. For all testing, the stage cups of the NGI were coated with a surfactant to prevent particle bounce and re-entrainment. The amount of lactose or budesonide collected on each component of the NGI testing apparatus was determined by rinsing the component with a measured volume of an appropriate solvent and subjecting the rinsed material to high pressure liquid chromatography (HPLC) analysis with charged aerosol detection to determine lactose or budesonide concentration. Data that was returned from HPLC analysis was analyzed to determine the average amount of drug collected on the DPI and capsule, the USP throat, and on each component of the NGI per delivered dose. Using the individual component values, the respirable fraction and delivery efficiency were calculated for each powder sample. […]

**Q.** What does the source list for O.OC[C@H]1O[C@@H](O[C@H]2[C@H](O)[C@@H](O)[C@@H](O)O[C@@H]2CO)[C@H](O)[C@@H](O)[C@H]1O [Comparative Example C4, α-Lactose monohydrate]?
**A.** % Delivery Efficiency: 34%; % Respirable Fraction: 63%
